Test results: patent publication US12240862B2, “Inhibitors of peptidylarginine deiminases” (Gilead Sciences, Inc., priority 2020, dated 2025)

Biological target: T1, human PAD4 (Homo sapiens, UniProt Q9UM07)
T1 construct: human PAD4 (NM_012387), A2P663, was PCR amplified; His-SUMO (N, cleaved yes); made in house; host or cells: E. coli BL21(DE3)
Assay: In vitro PAD4 BAEE biochemical assay
Conditions: human PAD4, BAEE substrate; 5 nM PAD4, 2 mM calcium chloride, 3 mM BAEE; geometric mean of multiple experiments
In short: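 Ammonia generated from BAEE serves as the readout, measured by o-phthalaldehyde after EDTA termination. Final conditions: 5 nM human PAD4 (SUMO tag cleaved), 2 mM CaCl2, 3 mM BAEE, pH 7.6 MOPS buffer, 25 °C for 2 h following a 30-min compound preincubation.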

T1 sequence (Q9UM07 2-663): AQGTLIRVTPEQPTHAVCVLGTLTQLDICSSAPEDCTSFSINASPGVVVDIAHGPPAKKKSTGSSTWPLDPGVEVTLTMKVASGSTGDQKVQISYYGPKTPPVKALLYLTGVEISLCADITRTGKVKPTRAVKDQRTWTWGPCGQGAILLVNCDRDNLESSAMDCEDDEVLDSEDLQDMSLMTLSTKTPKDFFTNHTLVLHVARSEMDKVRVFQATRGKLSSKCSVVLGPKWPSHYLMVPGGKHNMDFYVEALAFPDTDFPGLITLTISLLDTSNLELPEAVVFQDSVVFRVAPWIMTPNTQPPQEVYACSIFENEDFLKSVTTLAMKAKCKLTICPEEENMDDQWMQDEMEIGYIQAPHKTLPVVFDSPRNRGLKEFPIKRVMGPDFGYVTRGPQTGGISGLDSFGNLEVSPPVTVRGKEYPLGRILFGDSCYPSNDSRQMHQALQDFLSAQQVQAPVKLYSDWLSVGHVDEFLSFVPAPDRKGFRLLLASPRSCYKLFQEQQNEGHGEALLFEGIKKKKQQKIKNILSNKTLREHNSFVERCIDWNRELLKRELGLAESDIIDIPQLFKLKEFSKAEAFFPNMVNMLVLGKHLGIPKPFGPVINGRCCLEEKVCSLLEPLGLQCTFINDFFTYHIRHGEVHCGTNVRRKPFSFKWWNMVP

Compound	IC50 [nM]
CSc1cc(C(=O)N2CCC[C@@H](N)C2)cc2nc(-c3cc4ccc(N(C(F)F)S(C)(=O)=O)nc4n3CC3CC3)c(C)n12 [Example 387, ~{N}-[2-[7-[(3~{R})-3-aminopiperidine-1-carbonyl]-3-methyl-5-methylsulfanylimidazo[1,2-a]pyridin-2-yl]-1-(cyclopropylmethyl)pyrrolo [2,3-b]pyridin-6-yl]-~{N}-(difluoromethyl) methanesulfonamide]	779
COc1cc(C(=O)N2[C@H]3CC[C@@H]2[C@H](N)C3)cc2nc(-c3cc4ccc(C(C)n5cncn5)nc4n3CC3CC3)c(C)n12 (stereo partly drawn) [Example 546, [(1~{R},2~{R},4~{S})-2-amino-7-azabicyclo [2.2.1]heptan-7-yl]-[2-[1-(cyclopropylmethyl)-6-[1-(1,2,4-triazol-1-yl)ethyl]pyrrolo[2,3-b]pyridin-2-yl]-5-methoxy-3-methylimidazo[1,2-a]pyridin-7-yl]methanone]	156
CCOC(=O)N(C)c1ccc2cc(-c3nc4cc(C(=O)N5[C@H]6CC[C@@H]5[C@@H](N)CC6)cc(OC)n4c3C)n(CC3CC3)c2n1 [Example 491, ethyl~{N}-[2-[7-[(1~{R}, 2~{S},5~{R})-2-amino-8-azabicyclo[3.2.1]octane-8-carbonyl]-5-methoxy-3-methylimidazo[1,2-a]pyridin-2-yl]-1-(cyclopropylmethyl)pyrrolo [2,3-b]pyridin-6-yl]-~{N}-methylcarbamate]	32000
COc1cc(C(=O)N2C[C@H]3CC[C@@H]2[C@H](N)C3)cc2nc(-c3cc4ccc(N(C(F)F)S(C)(=O)=O)nc4n3CC3CC3)c(C)n12 [Example 376, ~{N}-[2-[7-[(1~{R},4~{S}, 6~{R})-6-amino-2-azabicyclo[2.2.2]octane-2-carbonyl]-5-methoxy-3-methylimidazo[1,2-a]pyridin-2-yl]-1-(cyclopropylmethyl)pyrrolo [2,3-b]pyridin-6-yl]-~{N}-(difluoromethyl) methanesulfonamide]	404
COc1cc(C(=O)N2[C@H]3CC[C@@H]2[C@H](N)C3)cc2nc(-c3cc4ccc(N5Cc6ccccc6CS5(=O)=O)nc4n3CC3CC3)c(C)n12 [Example 461, [(1~{R},2~{R},4~{S})-2-amino-7-azabicyclo [2.2.1]heptan-7-yl]-[2-[1-(cyclopropylmethyl)-6-(2,2-dioxo-1,4-dihydro-2$l^6,3-benzothiazin-3-yl)pyrrolo[2,3-b]pyridin-2-yl]-5-methoxy-3-methylimidazo[1,2-a]pyridin-7-yl]methanone]	294
COc1cc(C(=O)N2[C@@H]3CC[C@H]2C[C@@H](N)C3)cc2nc(-c3cc4ccc(N(C(F)F)S(C)(=O)=O)nc4n3CC3CC3)c(C)n12 [Example 326, ~{N}-[2-[7-[(1~{R}, 5~{S})-3-amino-8-azabicyclo[3.2.1]octane-8-carbonyl]-5-methoxy-3-methylimidazo[1,2-a]pyridin-2-yl]-1-(cyclopropylmethyl)pyrrolo[2,3-b]pyridin-6-yl]-~{N}-(difluoromethyl) methanesulfonamide]	3560
COc1cc(C(=O)N2[C@H]3CC[C@@H]2[C@H](N)C3)cc2nc(-c3cc4ccc([C@@H](C)NC(=O)c5ccccc5)nc4n3CC34CC(C3)C4)c(C)n12 [Example 489, ~{N}-[(1~{R})-1-[2-[7-[(1~{R},2~{R},4~{S})-2-amino-7-azabicyclo[2.2.1]heptane-7-carbonyl]-5-methoxy-3-methylimidazo[1,2-a]pyridin-2-yl]-1-(1-bicyclo [1.1.1]pentanylmethyl)pyrrolo[2,3-b]pyridin-6-yl]ethyl]benzamide]	177
CCc1ccc2cc(-c3nc4cc(C(=O)N5[C@H]6CC[C@@H]5[C@H](N)C6)cc(OC)n4c3C)n(-c3cnc(C)s3)c2n1 [Example 511, [(1~{R},2~{R},4~{S})-2-amino-7-azabicyclo [2.2.1]heptan-7-yl]-[2-[6-ethyl-1-(2-methyl-1,3-thiazol-5-yl)pyrrolo [2,3-b]pyridin-2-yl]-5-methoxy-3-methylimidazo [1,2-a]pyridin-7-yl] methanone]	4680
COc1cc(C(=O)N2[C@H]3CC[C@@H]2[C@H](N)C3)cc2nc(-c3cc4ccc(N[C@H](C)C(F)(F)F)nc4n3CC3CC3)c(C)n12 [Example 449]	6670
COc1cc(C(=O)N2[C@H]3CC[C@@H]2[C@H](N)C3)cc2nc(-c3cc4ccc([C@@H](C)NC(=O)Nc5ccccc5)nc4n3CC3CC3)c(C)n12 [Example 239, 1-[(1~{R})-1-[2-[7-[(1~{R},2~{R},4~{S})-2-amino-7-azabicyclo[2.2.1]heptane-7-carbonyl]-5-methoxy-3-methylimidazo [1,2-a]pyridin-2-yl]-1-(cyclopropylmethyl)pyrrolo [2,3-b]pyridin-6-yl]ethyl]-3-phenylurea]	81.7
COc1cc(C(=O)N2C[C@H]3CC[C@@H]2[C@@H]3N)cc2nc(-c3cc4ccc([C@@H](C)NC(=O)N5CCCC5)nc4n3CC3CC3)c(C)n12 [Example 250, N-((R)-1-(2-(7-((1R,4R,7R)-7-amino-2-azabicyclo[2.2.1]heptane-2-carbonyl)-5-methoxy-3-methylimidazo[1,2-a]pyridin-2-yl)-1-(cyclopropylmethyl)-1H-pyrrolo[2,3-b]pyridin-6-yl)ethyl) pyrrolidine-1-carboxamide]	193
COc1cc(C(=O)N2[C@H]3CC[C@@H]2[C@H](N)C3)cc2nc(-c3cc4ccc(N5[C@@H](C(F)(F)F)CCCS5(=O)=O)nc4n3CC3CC3)c(C)n12 [Example 447, [(1~{R},2~{R},4~{S})-2-amino-7-azabicyclo [2.2.1]heptan-7-yl]-[2-[1-(cyclopropylmethyl)-6-[(3~{R})-1,1-dioxo-3-(trifluoromethyl)thiazinan-2-yl]pyrrolo[2,3-b]pyridin-2-yl]-5-methoxy-3-methylimidazo[1,2-a]pyridin-7-yl]methanone]	187

Continued by falling IC50, values first:

IC50 [nM]	Compound
143	CCOC(=O)N(C)c1ccc2cc(-c3nc4cc(C(=O)N5[C@H]6CC[C@@H]5[C@H](N)C6)cc(OC)n4c3C)n(CC3CC3)c2n1 [Example 466, ethyl~{N}-[2-[7-[(1~{R},2~{R},4~{S})-2-amino-7-azabicyclo[2.2.1]heptane-7-carbonyl]-5-methoxy-3-methylimidazo [1,2-a]pyridin-2-yl]-1-(cyclopropylmethyl)pyrrolo [2,3-b]pyridin-6-yl]-~{N}-methylcarbamate]
125	Cc1cc(C(=O)N2CCC[C@@H](N)C2)cc2nc(-c3cc4ccc(N(C(F)F)S(C)(=O)=O)nc4n3CC3CC3)c(C)n12 [Example 426, ~{N}-[2-[7-[(3~{R})-3-aminopiperidine-1-carbonyl]-3,5-dimethylimidazo [1,2-a]pyridin-2-yl]-1-(cyclopropylmethyl)pyrrolo [2,3-b]pyridin-6-yl]-~{N}-(difluoromethyl) methanesulfonamide]
63.7	COc1cc(C(=O)N2[C@H]3CC[C@@H]2[C@H](N)C3)cc2nc(-c3cc4ccc([C@@H](C)NC(=O)c5ncccn5)nc4n3CC3CC3)c(C)n12 [Example 118, ~{N}-[(1~{R})-1-[2-[7-[(1~{R},2~{R},4~{S})-2-amino-7-azabicyclo[2.2.1]heptane-7-carbonyl]-5-methoxy-3-methylimidazo [1,2-a]pyridin-2-yl]-1-(cyclopropylmethyl)pyrrolo [2,3-b]pyridin-6-yl]ethyl]pyrimidine-2-carboxamide]
53.4	COc1cc(C(=O)N2[C@H]3CC[C@@H]2[C@H](N)C3)cc2nc(-c3cc4ccc([C@@H](C)NC(=O)CS(C)(=O)=O)nc4n3CC3CC3)c(C)n12 [Example 154, ~{N}-[(1~{R})-1-[2-[7-[(1~{R},2~{R},4~{S})-2-amino-7-azabicyclo[2.2.1]heptane-7-carbonyl]-5-methoxy-3-methylimidazo [1,2-a]pyridin-2-yl]-1-(cyclopropylmethyl)pyrrolo[2,3-b]pyridin-6-yl]ethyl]-2-methylsulfonylacetamide]
46.6	COc1cc(C(=O)N2[C@H]3CC[C@@H]2[C@H](N)C3)cc2nc(-c3cc4ccc([C@@H](C)NC(=O)C5(C)CC5(F)F)nc4n3CC3CC3)c(C)n12 (stereo partly drawn) [Example 102, ~{N}-[(1~{R})-1-[2-[7-[(1~{R},2~{R},4~{S})-2-amino-7-azabicyclo[2.2.1]heptane-7-carbonyl]-5-methoxy-3-methylimidazo [1,2-a]pyridin-2-yl]-1-(cyclopropylmethyl)pyrrolo [2,3-b]pyridin-6-yl]ethyl]-2,2-difluoro-1-methylcyclopropane-1-carboxamide]
44.1	COc1cc(C(=O)N2[C@H]3CC[C@@H]2[C@H](N)C3)cc2nc(-c3cc4ccc([C@@H](C)NC(=O)N5CCOC[C@H]5C(F)(F)F)nc4n3CC3CC3)c(C)n12 [Example 200, (3~{S})-~{N}-[(1~{R})-1-[2-[7-[(1~{R},2~{R},4~{S})-2-amino-7-azabicyclo[2.2.1]heptane-7-carbonyl]-5-methoxy-3-methylimidazo [1,2-a]pyridin-2-yl]-1-(cyclopropylmethyl)pyrrolo [2,3-b]pyridin-6-yl]ethyl]-3-(trifluoromethyl)morpholine-4-carboxamide]
35.6	COc1cc(C(=O)N2[C@H]3CC[C@@H]2[C@H](N)C3)cc2nc(-c3cc4ccc([C@@H](C)N5CCCCC5=O)nc4n3CC3CC3)c(C)n12 [Example 271]
33.6	COc1cc(C(=O)N2[C@H]3CC[C@@H]2[C@H](N)C3)cc2nc(-c3cc4ccc([C@@H](C)NC(=O)C56CC(CO)(C5)C6)nc4n3CC3CC3)c(C)n12 [Example 65]
30.1	COc1cc(C(=O)N2[C@H]3CC[C@@H]2[C@H](N)C3)cc2nc(-c3cc4ccc([C@@H](C)NC(=O)c5cccnc5)nc4n3CC3CC3)c(C)n12 [Example 120, ~{N}-[(1~{R})-1-[2-[7-[(1~{R},2~{R},4~{S})-2-amino-7-azabicyclo[2.2.1]heptane-7-carbonyl]-5-methoxy-3-methylimidazo [1,2-a]pyridin-2-yl]-1-(cyclopropylmethyl)pyrrolo [2,3-b]pyridin-6-yl]ethyl]pyridine-3-carboxamide]
